Some test systems named below: SK-MEL-5; UACC-62; ACHN; UO-31; SK-MEL-2; Malme-3M; OVCAR-4; OVCAR-3; HCT-15; DU-145; 786-0; HOP-92; HL-60; SNB-75; NCI-H460; HT-29; MDA-MB-435; SW-620; NCI-H522; SN12C.
What all share (assay): NCI anticancer screen, dose series, 48 h

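In this assay, cells in 96-well plates receive the compound at five concentrations for 48 hours. Endpoints are linearly interpolated between the surrounding concentrations. Here, GI50 denotes the concentration required for 50% inhibition of growth.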 Calls of active or inactive are those of the source. No stated cut-off is given here; in the data, active = GI50 up to about 1.1 µM and inactive = higher. Bounds are passed on as bounds.

`COc1ccc(-c2cc(-c3ccc(Nc4ccnc5cc(Cl)ccc45)cc3)[nH]c(=O)c2C#N)c2ccccc12`: the GI50 in the test with SK-MEL-5 is 13.1 µM (inactive); with UACC-62, 19.5 µM (inactive); in the test with ACHN, 27.5 µM (inactive); with UO-31 it was 5.32 µM (inactive); in the test with SK-MEL-2, 14.1 µM (inactive); with Malme-3M it was 2.23 µM (inactive). The GI50 in the test on OVCAR-4 was 1.79 µM (inactive); in the test with OVCAR-3, 2.18 µM (inactive); with HCT-15, 8.45 µM; with DU-145 it was 5.33 µM (inactive); with 786-0, 3.4 µM (inactive); in the test with HOP-92 it was 3.84 µM (inactive). Besides, the GI50 was 3.03 µM (inactive) in the test on HL-60; 3.2 µM (inactive) in the test on SNB-75; 11.1 µM (inactive) in the test on NCI-H460; 2 µM (inactive) in the test on HT-29; 1.87 µM (inactive) in the test on MDA-MB-435; 3.51 µM (inactive) in the test on SW-620. Besides, the GI50 in the test on NCI-H522 was 1.79 µM (inactive); in the test on SN12C, 11.4 µM (inactive).

In the case of `O=C1OC(OC/C(Br)=C(\Br)COC2OC(=O)C(Cl)=C2Cl)C(Cl)=C1Cl` (stereo not given), the GI50 was 8.83 µM (inactive) in the test with SK-MEL-5; 6.3 µM (inactive) in the test on UACC-62; 5.97 µM (inactive) in the test on ACHN; 3.18 µM (inactive) with UO-31; 19.5 µM (inactive) with SK-MEL-2; 2.55 µM (inactive) in the test on Malme-3M. Further, the GI50 in the test with OVCAR-4 was 7.6 µM (inactive); in the test on OVCAR-3 it was 3.95 µM (inactive); in the test with HCT-15, 2.8 µM; with DU-145 it was 15.1 µM (inactive); in the test with 786-0 it was 2.51 µM (inactive); in the test on HOP-92 it was 1.05 µM (active). Also, the GI50 with HL-60 is 0.324 µM (active); in the test with SNB-75, 15.9 µM (inactive); with NCI-H460, 13.2 µM (inactive); with HT-29, 2.55 µM (inactive); in the test on MDA-MB-435, 7.24 µM (inactive); in the test with SW-620, 2.39 µM (inactive). The figures for the GI50 in the test on NCI-H522 and with SN12C were 1.71 µM (inactive) and 5.64 µM (inactive), respectively.

As to `Cc1cc(C)c2c(O)cc(-c3cccc(F)c3)nc2n1`, the GI50 in the test on SK-MEL-5 was 0.0422 µM (active); in the test with UACC-62, < 0.0284 µM (active); in the test with ACHN, 0.0953 µM (active); in the test on UO-31 it was 12.9 µM (inactive); with SK-MEL-2 it was 0.098 µM (active); in the test on Malme-3M, 0.0614 µM (active). Also, the GI50 is 4.08 µM (inactive) in the test on OVCAR-4; 0.025 µM (active) in the test with OVCAR-3; 0.0495 µM in the test on HCT-15; 0.215 µM (active) in the test on DU-145; 0.177 µM (active) with 786-0; < 0.01 µM (active) in the test with HOP-92. The GI50 in the test with HL-60 was 0.0312 µM (active); with SNB-75 it was 0.0692 µM (active); in the test on NCI-H460 it was 0.0738 µM (active); in the test on HT-29, 0.0405 µM (active); with MDA-MB-435 it was < 0.01 µM (active); in the test with SW-620, < 0.0194 µM (active). Besides, the GI50 in the test with NCI-H522 was 0.03 µM (active); with SN12C, 0.299 µM (active).

As to `O=c1[nH]nc(-c2cccc(Br)c2)[nH]1`, the GI50 was > 100 µM (inactive) in the test on SK-MEL-5; > 100 µM (inactive) with UACC-62; > 100 µM (inactive) with ACHN; 94.2 µM (inactive) with UO-31; > 100 µM (inactive) in the test on SK-MEL-2; > 100 µM (inactive) in the test on Malme-3M. In addition, the GI50 is > 100 µM (inactive) with OVCAR-4; > 100 µM (inactive) in the test on OVCAR-3; more than 100 µM with HCT-15; > 100 µM (inactive) in the test on DU-145; > 100 µM (inactive) in the test on 786-0; > 100 µM (inactive) with HOP-92. Also, the GI50 is > 100 µM (inactive) in the test on HL-60; 43.3 µM (inactive) with SNB-75; > 100 µM (inactive) in the test with NCI-H460; > 100 µM (inactive) in the test on HT-29; > 100 µM (inactive) in the test on MDA-MB-435; > 100 µM (inactive) in the test with SW-620. The GI50 in the test with NCI-H522 and in the test on SN12C was > 100 µM (inactive) each time.

Regarding `Cc1cccc(NC(=O)c2cccc([N+](=O)[O-])c2O)c1C`, the GI50 was 9.62 µM (inactive) with SK-MEL-5; 28 µM (inactive) with UACC-62; 28.6 µM (inactive) in the test with ACHN; 17.9 µM (inactive) in the test on UO-31; 4.92 µM (inactive) in the test on SK-MEL-2; 33.8 µM (inactive) in the test with Malme-3M. Moreover, the GI50 was 26.6 µM (inactive) with OVCAR-4; 18.1 µM (inactive) in the test with OVCAR-3; 31.4 µM in the test on HCT-15; 37.3 µM (inactive) in the test on DU-145; 37.7 µM (inactive) in the test on 786-0; 16.4 µM (inactive) in the test with HOP-92. Further, the GI50 in the test on HL-60 is 13.4 µM (inactive); with SNB-75, 22.8 µM (inactive); in the test on NCI-H460 it was 20.6 µM (inactive); in the test with HT-29, 27.7 µM (inactive); with MDA-MB-435, 29.2 µM (inactive); in the test with SW-620, 37.9 µM (inactive). Also, the results for the GI50 in the test with NCI-H522 and in the test with SN12C were 16.8 µM (inactive) and 27.4 µM (inactive), respectively.

With `CN(C)CC1CC/C(=C\c2ccc3c(c2)OCO3)C1=O` (stereo not given), the GI50 in the test on SK-MEL-5 was 14.2 µM (inactive); in the test on UACC-62, 16.7 µM (inactive); with ACHN it was 13.9 µM (inactive); with UO-31, 10.6 µM (inactive); in the test on SK-MEL-2 it was 13 µM (inactive); with Malme-3M, 9.46 µM (inactive). For the same molecule, the GI50 was 9.29 µM (inactive) in the test with OVCAR-4; 7.74 µM (inactive) in the test on OVCAR-3; 6.67 µM in the test with HCT-15; 7.66 µM (inactive) in the test on DU-145; 6.85 µM (inactive) in the test on 786-0; 15.1 µM (inactive) in the test on HOP-92. Also, the GI50 with HL-60 is 2.56 µM (inactive); in the test on SNB-75, 5.53 µM (inactive); with NCI-H460, 19.5 µM (inactive); in the test with HT-29, 14.5 µM (inactive); with MDA-MB-435 it was 1.93 µM (inactive); in the test with SW-620, 6.4 µM (inactive). Further, the GI50 is 3.89 µM (inactive) with NCI-H522 and 7.89 µM (inactive) in the test with SN12C.

With `CCCCCCCCCCCCN(CC(O)C(O)C(OC1OC(CO)C(O)C(O)C1O)C(O)CO)C(=O)CCCCCCCCCCC` (stereo not given), the GI50 in the test with SK-MEL-5 is 17.5 µM (inactive); with UACC-62, 20.2 µM (inactive); with ACHN, 16.9 µM (inactive); in the test on UO-31 it was 21.5 µM (inactive); with SK-MEL-2 it was 23 µM (inactive); in the test on Malme-3M, 18.5 µM (inactive). Besides, the GI50 with OVCAR-4 was 21.4 µM (inactive); in the test on OVCAR-3 it was 21.8 µM (inactive); in the test with HCT-15, 18.6 µM; with DU-145, 20.6 µM (inactive); in the test on 786-0, 19 µM (inactive); in the test on HOP-92, 21.9 µM (inactive). The GI50 in the test on HL-60 was 33.7 µM (inactive); with SNB-75, 18.5 µM (inactive); in the test with NCI-H460, 20.5 µM (inactive); with HT-29, 19 µM (inactive); in the test with MDA-MB-435, 16.8 µM (inactive); in the test with SW-620 it was 19 µM (inactive). The GI50 is 24.1 µM (inactive) in the test on NCI-H522 and 22.1 µM (inactive) in the test with SN12C.

With `O=C(/C=C/c1ccccc1)CCN1CCN(CCC(=O)/C=C/c2ccccc2)CC1`, the GI50 in the test with SK-MEL-5 is 14.7 µM (inactive); with UACC-62, 16.3 µM (inactive); in the test with ACHN it was 16 µM (inactive); in the test with UO-31 it was 16.9 µM (inactive); with SK-MEL-2 it was 17.9 µM (inactive); in the test with Malme-3M it was 16.2 µM (inactive). The GI50 is 16.5 µM (inactive) in the test on OVCAR-4; 16.8 µM (inactive) in the test with OVCAR-3; 10.9 µM in the test with HCT-15; 17.6 µM (inactive) with DU-145; 6.05 µM (inactive) in the test on 786-0; 19.6 µM (inactive) with HOP-92. In addition, the GI50 in the test on HL-60 was 3.64 µM (inactive); with SNB-75, 15.8 µM (inactive); in the test with NCI-H460 it was 15.2 µM (inactive); with HT-29, 14.3 µM (inactive); in the test on MDA-MB-435, 3.72 µM (inactive); in the test with SW-620 it was 4.67 µM (inactive). Further, the GI50 in the test with NCI-H522 was 13.2 µM (inactive); with SN12C it was 10.1 µM (inactive).

Regarding `CC(C)CCC[C@@H](C)C1CCC2[C@@H]3CCC4CC(CCC=C(c5cc(Cl)c(OC(=O)c6ccccc6)c(C(=O)O)c5)c5cc(Cl)c(OC(=O)c6ccccc6)c(C(=O)O)c5)CC[C@]4(C)C3CC[C@@]21C` (stereo not given in full), the GI50 with SK-MEL-5 is 28.8 µM (inactive); in the test with UACC-62, > 100 µM (inactive); with ACHN it was > 100 µM (inactive); in the test on UO-31, > 100 µM (inactive); with SK-MEL-2 it was > 100 µM (inactive); in the test on Malme-3M it was 64.7 µM (inactive). The GI50 is > 100 µM (inactive) in the test on OVCAR-4; 74.8 µM (inactive) in the test on OVCAR-3; 46.1 µM in the test on HCT-15; > 100 µM (inactive) with DU-145; 22.6 µM (inactive) in the test with 786-0; 28.1 µM (inactive) in the test on HOP-92. The GI50 in the test with HL-60 is > 100 µM (inactive); in the test with SNB-75 it was > 100 µM (inactive); with NCI-H460, > 100 µM (inactive); in the test on HT-29, > 100 µM (inactive); with MDA-MB-435, 72.8 µM (inactive); in the test with SW-620 it was > 100 µM (inactive). The GI50 in the test on NCI-H522 and with SN12C was > 100 µM (inactive) in each case.

For the molecule `Cc1ccc2oc(=O)c3c(O)c4cccc(OC5OC(C)C6O[C@@H](c7ccccc7)OC6C5OC5OC(C)C(O)C(O)C5O)c4c4oc(=O)c1c2c34` (stereo not given in full), the GI50 was 0.0509 µM (active) in the test with SK-MEL-5; 0.0449 µM (active) in the test on UACC-62; 0.027 µM (active) with ACHN; 1.14 µM (inactive) in the test with UO-31; 0.196 µM (active) in the test on SK-MEL-2; 0.441 µM (active) with Malme-3M. For the same molecule, the GI50 with OVCAR-4 is 0.32 µM (active); in the test with OVCAR-3, 0.0857 µM (active); in the test on HCT-15, 0.553 µM; in the test on DU-145, 0.174 µM (active); in the test on 786-0, 0.0389 µM (active); in the test with HOP-92, 0.843 µM (active). For the same molecule, the GI50 with HL-60 is 0.0536 µM (active); in the test with SNB-75, 0.0492 µM (active); in the test on NCI-H460, < 0.0316 µM (active); in the test with HT-29, 0.0472 µM (active); in the test on MDA-MB-435, 0.27 µM (active); in the test on SW-620, 0.0486 µM (active). In addition, the results for the GI50 in the test with NCI-H522 and in the test on SN12C were 0.0574 µM (active) and 0.051 µM (active), respectively.

The values above are taken from ChEMBL document CHEMBL1201862, “PubChem BioAssay data set” (2004).
